This note sets out measurements from article PMC4995014, “Identification of ABC Transporter Interaction of a Novel Cyanoquinoline Radiotracer and Implications for Tumour Imaging by Positron Emission Tomography” (PLoS ONE, 2016).

Structures are written as SMILES.

The target in one series is T1, wildtype EGFR (Homo sapiens, UniProt P00533).
T1 construct: host or cells: H358; A549
The series is described as follows: Inhibition of EGFR autophosphorylation in wildtype EGFR expressing A549 and H358 cells. It is filed as cell-based. The note with it: read-out: IC50 p-EGFR Y1068 in wildtype EGFR expressing cells. The method, then: Affinity of the cyanoquinolines for EGFR was established by measuring their inhibition of EGFR autophosphorylation via western blot. Cells were seeded in 6 well plates and following 24 h of growth, were subject to overnight serum starvation. The cells were then treated with increasing concentrations of cyanoquinolines prepared in serum free growth media from a DMSO stock (final DMSO concentration < 1%) for 3 h at 37°C, and stimulated for receptor autophosphorylation by addition of 100 ng/mL of EGF during the last 15 minutes of drug incubation. After 3 h the cells were placed on ice, media removed and then the cells were washed two times with ice cold phosphate buffered saline (PBS). Lysates were analysed by western blot to measure changes to p-EGFR Y1068.
Cell lysates were prepared by addition of radioimmunoprecipitation assay (RIPA) buffer (50mM Tris-HCl pH 7.2, 150mM NaCl, 1% NP40, 1% sodium deoxycholate, 0.1% sodium dodecyl sulfate) supplemented with 1 x protease and phosphatase inhibitor cocktail (1mM 4-(2-Aminoethyl)benzenesulfonylfluoride hydrochloride, 800 nM aprotinin, 50 μM bestatin, 15 μM E-64, 5μM EDTA, 20 μM leupeptin, 10 μM pepstatin A; Thermo scientific, Waltham, Massachusetts, USA). […] Cellular protein levels were assessed using a bicinchoninic acid (BCA) protein assay kit according to the manufacturer’s instructions (Thermo scientific). […]

A further series can be described thus: Caco2 transwell assay. Format: in vitro ADME, human. The note with it: human, Caco-2, with verapamil 10 mg/mL, pre-treatment for 1 h, pre-treatment with 10 mg/mL verapamil for 1 h; read-out: efflux ratio in the presence of verapamil. The method, then:
The caco2 transwell assay was performed to assess permeability. Cells were seeded at a density of 60,000 cells per well in 24 well transwell plates (Millipore, Billerica, Massachutsetts, USA), and maintained in DMEM supplemented with […] glucose (20% FBS, 1% penicillin/streptomycin, 1% glutamine) for 21 days at 37°C in 5% CO2. After 21 days the cells differentiate into enterocytes and express all three MDR proteins, ABCB1 and ABCG2 at the apical side and ABCC1 on the basal side. On day 21, cells were washed three times with Hank's Balanced Salt Solution (HBSS) (Fisher scientific, Loughborough, UK) and the trans-epithelial electric resistance (TERR) was measured using an Epithelial Voltohmmeter (EVOM) (World Precision Instruments, Sarasota, USA); only transwells with TERR of 400 Ω/cm^2 or above were used for the experiment. Cells were treated either at the apical (n = 3) or basal (n = 3) side of the transwell by addition of 10 μM of cyanoquinoline compound or 50 μM vinblastine prepared in a volume of 400 μL HBSS (compound added to apical well) or 800 μL of HBSS (added to basal well). When transport inhibitors FTC (10 μM) or zosuquidar (0.3 μM) were used, they were added to both the apical and basal wells 1 h prior to drug treatment. After 1 h pre-treatment the medium was removed and cells were treated with the compounds prepared in HBSS containing FTC or Zosuquidar.
Plates were incubated in shaker incubator at 37°C and 60 rpm for 120 min. After incubation, 200 μL aliquots from the apical and the basal wells were collected and analysed using high performance liquid chromatography (HPLC). Samples were run on a Millipore Waters HPLC system which included a 717 plus autosampler and 2487 dual wavelength absorbance detector system. The stationary phase comprised of a Phenomenex Luna C18 reverse phase column (150 X 4.6 mm; 5 μm particle size). The mobile phase comprised water (0.1% TFA) and acetonitrile (0.1% TFA) (80:20 v/v) at a flow rate of 1 mL/min for all compounds except vinblastine. For vinblastine, the stationary phase comprised a Supelcosil LC-ABZ reverse phase column (5 × 4.6 mm; 5 μm particle size). The mobile phase comprised water (0.1% formic acid) and methanol (90:10 to 10:90 v/v gradient over 20 min). Peak areas corresponding to the compounds of interest were recorded. Using standard curves the areas under the curve were converted into concentrations of compound. The permeability coefficient (Papp) was calculated using the following equation [30]: Papp = (dQ/dt)/A C0, where A is the surface area of the transwell membrane in cm^2 (= 0.33 cm^2), C0 is the drug concentration in the donor chamber at time t = 0 and dQ/dt is the rate of transfer of the compound to the receiver chamber, determined from the slope of the graph concentration (dQ) versus time (dt). Papp values corresponding to absorption and secretion were assessed and used to calculate efflux ratio. Efflux ratio =(Papp B−A)/(Papp A−B) Where Papp A-B = Papp absorption and Papp B-A = Papp secretion.
The integrity of the caco2 cell membrane was assessed for each well following the experiment by addition of a 100 μM solution of […] (Sigma) in HBSS to the apical side of the plate. The plates were placed in the shaker incubator for 1 h at 37°C and 60 rpm. Samples from the basal wells were transferred into a 96 well plate and the levels of […] were assessed by measuring with an excitation of 450 nm and an emission of 540 nm using the PerkinElmer Wallac 1420 counter.
(In general: Passage across Caco-2 layers is used to estimate intestinal permeability.)

Broadly, the IC50 is the concentration that inhibits the measured activity by half.

T1 sequence (P00533 25-1210): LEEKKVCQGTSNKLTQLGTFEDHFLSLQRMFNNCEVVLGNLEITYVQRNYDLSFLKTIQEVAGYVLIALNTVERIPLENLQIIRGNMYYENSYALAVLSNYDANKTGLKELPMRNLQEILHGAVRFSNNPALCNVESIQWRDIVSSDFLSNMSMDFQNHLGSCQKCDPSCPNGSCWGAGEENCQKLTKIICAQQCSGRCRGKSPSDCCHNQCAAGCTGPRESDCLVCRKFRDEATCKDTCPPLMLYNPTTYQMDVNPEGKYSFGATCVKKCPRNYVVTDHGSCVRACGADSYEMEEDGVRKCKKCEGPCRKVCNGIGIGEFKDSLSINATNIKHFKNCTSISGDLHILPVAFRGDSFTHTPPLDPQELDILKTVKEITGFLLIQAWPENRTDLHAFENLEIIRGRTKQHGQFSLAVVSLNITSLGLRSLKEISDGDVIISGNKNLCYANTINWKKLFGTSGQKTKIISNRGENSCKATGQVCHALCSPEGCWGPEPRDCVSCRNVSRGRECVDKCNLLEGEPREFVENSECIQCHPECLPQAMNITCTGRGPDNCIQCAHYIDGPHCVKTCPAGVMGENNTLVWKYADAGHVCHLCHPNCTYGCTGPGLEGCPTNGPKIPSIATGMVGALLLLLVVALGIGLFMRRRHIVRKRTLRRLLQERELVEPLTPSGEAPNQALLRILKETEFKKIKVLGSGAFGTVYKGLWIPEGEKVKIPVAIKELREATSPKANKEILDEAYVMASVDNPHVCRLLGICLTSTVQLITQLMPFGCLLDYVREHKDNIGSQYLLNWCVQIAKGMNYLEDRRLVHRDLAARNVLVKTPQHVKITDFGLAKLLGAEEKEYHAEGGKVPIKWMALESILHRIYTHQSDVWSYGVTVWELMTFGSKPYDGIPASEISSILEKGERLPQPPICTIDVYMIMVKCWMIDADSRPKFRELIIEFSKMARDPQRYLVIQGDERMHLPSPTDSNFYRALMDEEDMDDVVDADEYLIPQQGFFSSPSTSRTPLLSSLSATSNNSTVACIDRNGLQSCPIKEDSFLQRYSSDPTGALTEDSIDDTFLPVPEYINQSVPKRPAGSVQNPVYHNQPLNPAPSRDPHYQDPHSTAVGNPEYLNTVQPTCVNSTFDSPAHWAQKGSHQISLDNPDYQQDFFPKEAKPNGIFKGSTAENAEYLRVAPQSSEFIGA

In the case of `CCOc1cc2ncc(C#N)c(Nc3ccc(F)c(Cl)c3)c2cc1NC(=O)/C=C/CNCc1cn(CCF)nn1` [FED6, (2E)-N-{4-[(3-chloro-4-fluorophenyl)amino]-3-cyano-7-ethoxyquinolin-6-yl}-4-({[1-(2-fluoroethyl)-1H-1,2,3-triazol-4-yl]methyl}amino)-but-2-enamide], on wildtype EGFR, the IC50 was in the range of 0.6 to 0.7 µM. The efflux ratio at 120 min, 10 μM in “Caco2 transwell assay” came out at 1.1.
